We go through two compounds from US20250327028A1, “ENGINEERED PLATELETS AS TARGETED PROTEIN DEGRADERS” (Wisconsin Alumni Research Foundation, priority 2024, published 2025).

SMILES strings stand for the structures.

Test [1] has as its target T1, BRD4 (Mus musculus, UniProt Q9ESU6).
T1 construct: endogenous in cells; host or cells: 4T1
The test is described as follows: Immunoblot analysis of BRD4 degradation in 4T1 cells after free HAC treatment. The class given is cell-based, murine. The following applies: 4T1 cells. An excerpt: (§1) Immunoblot analysis: Immunoblot analysis was used to evaluate the expression of BRD4, HSP90, HSP90a, and PD-L1 in 4T1, WT MDA-MB-231, HSP90α-KO MDA-MB-231 or PEA-10 cells after various treatments and also served as the detection method for IP or co-IP experiments. The procedures for preparing IP or co-IP samples were indicated in the relevant experimental parts.
(§2) Sample preparation for various cancer cells after free HAC treatment: Various cells, including 4T1, WT MDA-MB-231, HSP90α-KO MDA-MB-231, or PEA-10 cells, were seeded in 6-well culture plates with a density of 5×10^4 cells in each well and cultured for 24 h. Then, if HAI pretreatment was performed, the cells were incubated in the HAI-containing blank medium at different concentrations for 2 h and washed with PBS twice before the following treatments. The medium in the corresponding wells was replaced with 1 mL of blank medium containing the DMSO vehicle, HACs, or the combinations of various free ligands at the predetermined concentrations. After incubation for the indicated time points, cells were washed with PBS and lysed on ice with the relevant lysis buffer containing PMSF (1 mM) and the phosphatase inhibitor cocktail for 30 min. As for the conditioned medium (CM), the culturing complete medium of the corresponding cancer cells in each well was collected after 24-h incubation and subjected to centrifugation at 2000 rpm for 5 min to obtain the supernatant. The filtrate of the supernatants was collected following filtration over a 0.45 μm filter, serving as the CM. Regarding the cell samples for BRD4 detection, the lysis buffer containing HEPES-KOH (pH=7.5, 10 mM), NaCl (500 mM), EDTA (5 mM), NP-40 (1%), and SDS (0.1%) was used with the indicated PMSF and phosphatase inhibitor cocktail. As for PD-L1 detection, RIPA buffer (Thermo Fisher Scientific/J63306.AP) was used with the indicated PMSF and phosphatase inhibitor cocktail.
General procedures for immunoblot analysis: After a 30-min lysis, the lysates were centrifuged at 10,000 g for 10 minutes at 4° C., and the corresponding supernatants were collected, followed by quantification of the total proteins in the supernatant through the BCA assay. Afterward, the proteins in the supernatant were mixed with the loading buffer and heated at 95° C. for 15 min. Equal amounts of proteins from different samples ([…]) were loaded into the Bis-Tris gel formulated with Bis-Tis buffer, 30% acrylamide/Bis, 10% ammonium persulfate (APS) solution, and TEMED. The separated proteins were transferred to polyvinylidene fluoride (PVDF) membranes before the membranes were blocked with 5% nonfat milk in PBS-T. Next, the PVDF membranes were incubated with primary antibodies overnight at 4° C., if necessary, followed by the incubation with the goat-anti-rabbit IgG H & L (HRP) secondary antibodies at room temperature for 2 h. Finally, the bands were treated with electrochemiluminescence (ECL) western blot substrate, detected by the iBright™ imaging system and quantified with ImageJ software. 8% Bis-Tris gels were used for BRD4 detection, and 10% gels were adopted to analyze PD-L1.

In test [2] the target is T1, BRD4. The test is described as follows: Immunoblot analysis of BRD4 degradation in 4T1 cells after DePLT or PMP treatment. The class given is cell-based, murine. Conditions: 2-h HAI pretreatment, 1×10^8 iDePLTs 12 h. As for the experimental part: as §1
(§3) Sample preparation for 4T1 cells after DePLT treatment: 4T1 cells were seeded in 6-well culture plates with a density 5×10^4 cells in each well and cultured for 24 h. The engineered platelets, including iDePLT and eDePLT, were generated by incubating the fresh platelets in PBS containing iHAC or eHAC at 20 μM for 2 h. The fresh nPLT was used as the control. Then, if HAI pretreatment was performed, the cells were incubated in the HAI-containing blank medium at different concentrations for 2 h and washed with PBS twice before the following treatments. […]
(§4) General procedures for immunoblot analysis: After a 30-min lysis, the lysates were centrifuged at 10,000 g for 10 minutes at 4° C., and the corresponding supernatants were collected, followed by quantification of the total proteins in the supernatant through the BCA assay. […] Finally, the bands were treated with electrochemiluminescence (ECL) western blot substrate, detected by the iBright™ imaging system and quantified with ImageJ software. […]

In test [3] the test system is WT MDA-MB-231 cells. As to the kind of experiment: In-gel fluorescence detection of NA-647 internalization in WT MDA-MB-231 cells. The class given is cell-based, human. The following applies: WT MDA-MB-231, 2-h HAI at various concentrations prior to HAC-B 5 μM 4 h. As for the experimental part: In-gel fluorescence detection: In-gel fluorescence was mainly used to investigate the internalization of NeutrAvidin™_647 in HAC-B-treated cancer cells.
Sample preparation: 4T1 or WT MDA-MB-231 cells were seeded in 6-well culture plates with a density of 5×10^4 cells in each well and cultured for 24 h. If HAI pretreatment was performed, the cells were incubated in the HAI-containing blank medium at different concentrations for 2 h and washed with PBS twice before the following treatments. Then, the cells were treated with free HAC-B or the combinations of various ligands at the indicated concentrations for the predetermined time points. Next, the drug-containing medium was removed, and PBS was used to wash the cells twice, followed by incubating the cells in the blank medium containing NeutrAvidin™ DyLight™ 650 (NA-647, Invitrogen/84607) at 0.5 μM for 1 h. Finally, the cells were washed with PBS and lysed on ice with the RIPA buffer containing PMSF (1 mM) and the phosphatase inhibitor cocktail for 30 min. A s for the 4T1 cells cotreated with NA-647 and HAC-B, the cells after 24-h incubation were treated with the blank medium containing NA-647 at 0.5 μM and HAC-B at various concentrations for 2 h before cell lysis.
In-gel fluorescence imaging: After 30-min lysis, the lysates were centrifuged at 10,000 g for 10 minutes at 4° C., and the corresponding supernatants were collected, followed by quantification of the total proteins in the supernatant through the BCA assay. Afterward, the proteins in the supernatant were mixed with ¼ volume of 5× sample buffer formulated by Tris-HCl (pH 6.8, 312.5 mM), sucrose (25%), SDS (10%), bromophenol blue (0.025%), and dithiothreitol (DTT, 250 mM). After incubation for 1 h at room temperature, equal amounts of proteins from different samples ([…] per lane) were loaded into the 12% Bis-Tris gel. After the proteins were separated, the gels were subjected to fluorescence imaging with the ChemiDoc™ MP imaging system (Bio-Rad).

For test [4], the target named is T2, PD-L1 (Mus musculus, UniProt Q9EP73).
T2 construct: endogenous in cells; host or cells: 4T1
As to the kind of experiment: Immunoblot analysis of PD-L1 degradation in 4T1 cells after eDePLT treatment. The class given is cell-based, murine. Conditions: 2-h HAI pretreatment, 1×10^8 eDePLTs 8 h. As for the experimental part: as §1, §3, §4
For orientation: A western blot detects proteins with antibodies after separation by electrophoresis.

Test [5] has as its target T3, BRD4 (Homo sapiens, UniProt O60885).
T3 construct: endogenous in cells; host or cells: WT MDA-MB-231 (ATCC)
The test is described as follows: Immunoblot analysis of BRD4 degradation in WT MDA-MB-231 cells after free HAC treatment. The following applies: lower or higher effective concentrations, 12 h. The class given is cell-based.
Excerpt: as §1
as §2, with “Regarding the cell samples for BRD4 detection, the lysis buffer containing HEPES-KOH (pH=7.5, 10 mM), NaCl (500 mM), EDTA (5 mM), NP-40 (1%), and SDS (0.1%) was used with the indicated PMSF and phosphatase inhibitor cocktail. As for PD-L1 detection, RIPA buffer (Thermo Fisher Scientific/J63306.AP) was used with the indicated PMSF and phosphatase inhibitor cocktail.” left out
as §4

T2 sequence (Q9EP73 19-290): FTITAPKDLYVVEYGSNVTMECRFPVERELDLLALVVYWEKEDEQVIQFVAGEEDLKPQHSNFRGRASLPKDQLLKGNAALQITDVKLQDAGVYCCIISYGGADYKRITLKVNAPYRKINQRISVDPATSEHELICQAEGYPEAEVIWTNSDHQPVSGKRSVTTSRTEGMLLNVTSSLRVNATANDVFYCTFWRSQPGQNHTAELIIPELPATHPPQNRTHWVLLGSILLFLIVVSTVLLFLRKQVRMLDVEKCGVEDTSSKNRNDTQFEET

With `Nc1ncnc2c1nc(Sc1cc3c(cc1I)OCO3)n2CCCNCc1cccc(S(=O)(=O)F)c1` [HAI, 3-(((3-(6-amino-8-((6-iodobenzo[d][1,3]dioxol-5-yl)thio)-9H-purin-9-yl)propyl)amino)methyl)benzenesulfonyl fluoride], the “BRD4 degradation by iHAC after HAI pretreatment” value in test [1] (2-h HAI pretreatment at various concentrations, then iHAC 10 μM 12 h) is “inferior BRD4 degradation efficacy”. For the same compound, in test [2], the “BRD4 downregulation by iDePLT after HAI pretreatment of target cells” value was “failed to relieve BRD4 downregulation”. For the same compound, in test [3], the “NA-647 uptake by HAC-B after HAI preincubation” value is “largely compromised NA-647 uptake”. In addition, the “PD-L1 degradation by eDePLT after HAI pretreatment of target cells” value in test [4] is “failed to rescue the PD-L1 degradation”.

On to `Cc1sc2c(c1C)C(c1ccc(Cl)cc1)=N[C@H](CC(=O)NCc1cn(CCCC(=O)N(CC#N)S(=O)(=O)c3ccc(C(=O)NCCCn4c(Sc5cc6c(cc5I)OCO6)nc5c(N)ncnc54)cc3)nn1)c1nnc(C)n1-2` [iHACepi, (R)—N-(3-(6-amino-8-((6-iodobenzo[d][1,3]dioxol-5-yl)thio)-9H-purin-9-yl)propyl)-4-(N-(4-(4-((2-(4-(4-chlorophenyl)-2,3,9-trimethyl-6H-thieno[3,2-f][1,2,4]triazolo[4,3-a][1,4]diazepin-6-yl)acetamido)methyl)-1H-1,2,3-triazol-1-yl)butanoyl)-N-(cyanomethyl)sulfamoyl)benzamide], for which the “BRD4 degradation compared to iHAC” value in test [1] (lower or higher effective concentrations, 12 h) was “almost no substantial BRD4 degradation”; in test [5] it was “almost no substantial BRD4 degradation”.
